Measured values as given in patent publication US4550186A, “Binuclear copper (II) carboxylates formed from amine-carboxyboranes” (Duke University, priority 1983, dated 1985).

Experiments:
[1] = test system: Phosphatidate Phosphohydrolase; experiment: In vitro liver enzyme study: phosphatidate phosphohydrolase; type: biochemical, mouse; settings: in vitro CF1 liver, 30 min
Description: (§1) In vitro enzymatic studies were determined using 10% homogenates of CF1 male mouse liver with 50-200 μM of test drugs. In vivo enzymatic studies were determined using 10% homogenates of liver from CF1 male mice obtained after administering the agents for 16 days at a dose ranging from 2.5-20 mg/kg/day intraperitoneally. The liver homogenates for both in vitro and in vivo studies were prepared in 0.25M sucrose and 0.001M (ethylenedinitrilo)tetraacetic acid. Acetyl coenzyme A synthetase and adenosine triphosphate dependent citrate lyase activities were determined spectrophotometrically at 540 nm as the hydroxylamate of acetyl coenzyme A formed after 30 min at 37° C. Mitochondrial citrate exchange was determined by the procedure of Robinson et al [Eur. J. Biochem., 216, 63 (1970)] using ^14 C-sodium bicarbonate (41 mCi/mmol) incorporated into mitochondrial ^14 C-citrate after isolating rat mitochondria (9000 g×10 min) from the homogenates. The exchanges of the ^14 C-citrate were determined after incubating the mitochondrial fraction which was loaded with labeled citrate and test drugs for 10 min. Then the radioactivity was measured in the mitochondrial and supernantant fractions in scintillation fluid and expressed as a percentage. Cholesterol side chain oxidation was determined by the method of Kritchevsky and Tepper [Artherosclerosis, 18, 93 (1973)] using (26-^14 C) cholesterol (50 mCi/mmol) and mitochondria isolated from rat liver homogenates. […] Fatty acid synthetase activity was determined by the method of Brady et al [J. Biol. Chem., 235, 3093 (1960)] using [2-^14 C] malonyl-coenzyme A (37.5 mCi/mmol) which was incorporated into newly synthesized fatty acids that were extracted with ether and counted. Acyl transferase activity was determined with glycerol-3phosphate [L-2-^3 H(N)] […] HCl and counted. Phosphatidate phosphohydrolase activity was measured as the inorganic phosphate released after 30 min from phosphatidic acid by the method of Mavis et al [J. Lipid Res., 19, 467 (1978)]. […]

[2] = biological target: T1, aspartate carbamyl transferase (Mus musculus, UniProt B2RQC6); experiment: In vitro aspartate carbamyl transferase activity; type: biochemical; settings: 0.25 to 1.0 mM
T1 construct: ATCase domain of CAD
T1 sequence (B2RQC6 2-2225): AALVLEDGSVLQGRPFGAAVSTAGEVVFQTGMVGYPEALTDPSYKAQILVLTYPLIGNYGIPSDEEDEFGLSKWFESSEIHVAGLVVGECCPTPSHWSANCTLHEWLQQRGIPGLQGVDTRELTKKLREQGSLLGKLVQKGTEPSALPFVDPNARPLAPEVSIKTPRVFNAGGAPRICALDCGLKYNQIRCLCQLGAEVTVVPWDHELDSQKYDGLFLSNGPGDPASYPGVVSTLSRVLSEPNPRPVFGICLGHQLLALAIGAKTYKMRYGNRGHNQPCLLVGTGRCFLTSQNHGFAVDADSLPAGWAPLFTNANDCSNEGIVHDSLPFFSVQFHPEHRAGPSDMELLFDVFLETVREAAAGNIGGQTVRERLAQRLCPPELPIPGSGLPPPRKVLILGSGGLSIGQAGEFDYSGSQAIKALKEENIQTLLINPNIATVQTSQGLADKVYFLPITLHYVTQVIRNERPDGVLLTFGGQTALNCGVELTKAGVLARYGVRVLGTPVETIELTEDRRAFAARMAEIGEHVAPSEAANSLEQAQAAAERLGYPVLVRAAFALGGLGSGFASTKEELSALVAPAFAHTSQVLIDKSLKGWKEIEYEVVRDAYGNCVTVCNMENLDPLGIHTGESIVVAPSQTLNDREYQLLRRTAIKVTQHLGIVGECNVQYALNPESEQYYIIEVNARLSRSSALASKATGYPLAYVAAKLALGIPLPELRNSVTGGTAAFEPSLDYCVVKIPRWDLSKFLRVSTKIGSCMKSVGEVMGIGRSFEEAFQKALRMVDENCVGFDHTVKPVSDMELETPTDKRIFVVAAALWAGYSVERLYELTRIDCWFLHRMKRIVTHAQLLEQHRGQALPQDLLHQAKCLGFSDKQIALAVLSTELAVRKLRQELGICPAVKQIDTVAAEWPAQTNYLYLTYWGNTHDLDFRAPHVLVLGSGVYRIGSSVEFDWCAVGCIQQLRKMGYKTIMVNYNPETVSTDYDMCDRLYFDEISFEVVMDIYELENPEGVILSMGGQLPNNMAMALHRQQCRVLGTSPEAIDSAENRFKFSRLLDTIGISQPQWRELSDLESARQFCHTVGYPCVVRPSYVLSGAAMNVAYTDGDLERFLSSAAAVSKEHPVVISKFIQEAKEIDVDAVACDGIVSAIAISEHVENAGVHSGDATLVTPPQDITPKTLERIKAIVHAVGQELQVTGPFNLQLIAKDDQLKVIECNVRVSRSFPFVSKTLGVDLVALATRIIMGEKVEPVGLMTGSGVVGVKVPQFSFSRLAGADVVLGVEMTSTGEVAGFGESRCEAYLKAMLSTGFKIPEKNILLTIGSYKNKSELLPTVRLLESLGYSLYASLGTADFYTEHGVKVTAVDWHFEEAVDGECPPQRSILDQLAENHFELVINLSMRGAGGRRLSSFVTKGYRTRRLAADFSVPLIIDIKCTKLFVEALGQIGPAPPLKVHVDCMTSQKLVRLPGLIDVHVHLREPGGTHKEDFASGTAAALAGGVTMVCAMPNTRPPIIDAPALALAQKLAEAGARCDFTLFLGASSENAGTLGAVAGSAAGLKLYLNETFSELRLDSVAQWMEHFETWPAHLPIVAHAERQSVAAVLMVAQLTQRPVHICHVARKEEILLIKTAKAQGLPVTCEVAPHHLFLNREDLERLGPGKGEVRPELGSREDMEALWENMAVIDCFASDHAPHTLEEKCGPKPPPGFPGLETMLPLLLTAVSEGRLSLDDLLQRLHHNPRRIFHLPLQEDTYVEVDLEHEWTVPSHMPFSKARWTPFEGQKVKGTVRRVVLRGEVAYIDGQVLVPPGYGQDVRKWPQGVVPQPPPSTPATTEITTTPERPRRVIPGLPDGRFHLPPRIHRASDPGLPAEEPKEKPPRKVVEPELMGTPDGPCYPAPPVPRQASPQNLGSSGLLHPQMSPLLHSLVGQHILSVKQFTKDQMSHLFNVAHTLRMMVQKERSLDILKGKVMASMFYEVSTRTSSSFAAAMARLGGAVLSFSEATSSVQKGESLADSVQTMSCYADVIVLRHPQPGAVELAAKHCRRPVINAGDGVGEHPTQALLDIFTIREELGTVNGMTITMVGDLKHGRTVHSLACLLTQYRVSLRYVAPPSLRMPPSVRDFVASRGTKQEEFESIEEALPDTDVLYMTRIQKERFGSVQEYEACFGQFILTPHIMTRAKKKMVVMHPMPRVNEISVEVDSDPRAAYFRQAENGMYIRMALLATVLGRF
Description: CF1 male mice (~30 g) were implanted with 2×10^6 Ehrlich ascites tumor cells, intraperitoneally on Day 0. Compound I was suspended by homogenation in 0.05% polysorbate.80-water and administered intraperitoneally at 10 and 20 mg/kg for 9 days to determine its effectiveness for inhibition of tumor growth. Mice were sacrificed on Day 10, and the ascites fluid was collected from the peritoneal cavity. The volume and ascrit (packed cell volume) were determined for each animal and the percent inhibition of tumor growth was calculated. For the metabolic studies, mice were treated on Days 8 and 9 with 10 mg/kg of Compound I, intraperitoneally. […]
Carbamyl phosphate synthetase activity was determined using the reaction medium of Kalman et al [Am. […] Citrulline formed from ornithine was measured at 490 nm by the method of Archibald [J. Biol. Chem., 156, 121 (1944)]. […] The ^14 CO2 generated in 15 min was trapped in 1M KOH and counted. Thymidylate synthetase activity was determined using a post-mitochondrial supernatant (9000 g×10 min) and 5 μCi of 5-^3 H-deoxyuridine monophosphate (14 Ci/mmol) according to the method of Kampf et al [ J. Med. Chem., 19, 903 (1976)]. ^14 C-Formate incorporation into purines was determined by the method of Spassova et al [Biochem. Pharmacol., 25, 923 (1976)] using 0.5 μCi of ^14 C-formic acid (52.0 mCi/mmol). […] The Rf value for xanthine monophosphate was scraped and counted. […]

[3] = biological target: T2, Acetyl CoA Carboxylase (Mus musculus, UniProt Q5SWU9); experiment: In vitro liver enzyme study: acetyl CoA carboxylase; type: biochemical; settings: in vitro CF1 liver
T2 construct: 10% homogenates of CF1 male mouse liver; from tissue; host or cells: CF1 male mouse liver, 10% homogenate
Description: as §1

{Cu[(CH3)3 N.BH2 CO2 ]2.(CH3)3 N.BH2 COOH} [Compound I]
Phosphatidate Phosphohydrolase ([1]; 50 μM): 77 ± 5 Percent Control
Phosphatidate Phosphohydrolase ([1]; 100 μM): 63 ± 6 Percent Control
Phosphatidate Phosphohydrolase ([1]; 200 μM): 35 ± 3 Percent Control
aspartate carbamyl transferase inhibition [2]: not inhibited
Acetyl CoA Carboxylase ([3]; 50 μM): 96 ± 6 Percent Control
Acetyl CoA Carboxylase ([3]; 100 μM): 93 ± 5 Percent Control
Acetyl CoA Carboxylase ([3]; 200 μM): 92 ± 5 Percent Control
